Measurements: patent US20220409526A1 (Retina Foundation Of The Southwest, priority 2019, published 2022)
Blank lines part the entries; values can stand above or below the compound they belong to.

Experiments:
[1] = tested on: ARPE-19 cells; experiment: GSH assay (Promega GSH/GSSG-Glo); assay type: cell-based, human; conditions: 1 mM for 24 hours
Experimental: The production of cellular GSH levels upon exposure to drugs were measured using the GSH assay kit. NACA and GSH-EE were used as controls in this assay. ARPE-19 cells were grown in white 96 well plates. The cells were exposed to 1 mM solutions of NAC, NACME, NACEE, NACPE, NACBE, NACA and glutathione ethyl ester (GSH-EE) for 24 hours. The solutions were removed and washed with PBS once. Afterwards, GSH assay was carried out according to manufacturer recommended protocol (Promega GSH/GSSG-Glo™) and luminescence readings were obtained with a luminometer, which a higher luminescence intensity indicates a higher GSH concentration.

[2] = tested on: mitochondrial DNA of ARPE-19 cells; experiment: DNA fragmentation assay (long-extension PCR of mitochondrial DNA); assay type: cell-based, human
Experimental: Mitochondrial DNA damage has been linked to pathogenic diseases, including AMD. To determine if pretreatment of RPE cells with NAC alkyl-ester analogues could protect mitochondrial DNA against oxidative damage, a long-extension PCR based assay was used to measure amplification of a large stretch of mitochondrial DNA. The mitochondrial DNA damage assay was performed according to protocols known to those in the art (see Santos, J. H.; Mandavilli, B. S.; Van Houten, B., Measuring Oxidative mtDNA Damage and Repair Using Quantitative PCR. In Mitochondrial DNA: Methods and Protocols, Copeland, W. C., Ed. Humana Press: Totowa, N.J., 2002; pp 159-176). Briefly, ARPE-19 cells were grown to confluency in 6-well plates. The cells were treated with NAC alkyl-ester analogues for 24 hours, washed and then treated with 500 uM HQ for an additional 24 hours. DNA was isolated from the treated cells with a QIAamp DNA mini kit (Qiagen). The DNA samples were diluted to 3 ng/μl for use in PCR reactions. PCR products were quantified using the Quant-iT Picogreen dsDNA Assay kit (Invitrogen). The relative amplification of the large band was normalized to untreated cells. The amplification of the small mitochondrial band was used to normalize the data obtained from the large band to account for mitochondrial DNA copy number.

[3] = in vitro; assay type: cell-based, human; conditions: human
Experimental: (§1) ARPE-19 cells were grown in DMEM:F-12 supplemented with 10% fetal bovine serum (FBS). For all experiments these cells were split and grown in 6-well plates using MEM-Nic supplemented with 1% FBS according to a previously published procedure.^33 Cells used for all the experiments were between passages 25-30. For all experiments, the 96 well plates and 8-well slides were coated with 0.039 mg/mL collagen I at 6 μg/cm^2. The cells were seeded at a cell density of 70,000 cells/well and 150,000 cells/well using MEM-Nic media for 96 well plates and 8 well slides, respectively. Once the cells are confluent, media was replaced with MEM a, GlutaMAX™, supplemented with 1% FBS for 24 hours before carrying out assay protocols. Exposure to NAC alkyl-ester prodrugs were carried out in MEM a, GlutaMAX™, supplemented with 1% FBS and treatment with HQ was carried out in serum free DMEM:F-12.
(§2) ARPE-19 Cell viability assays were carried out using XTT/PMS reagent mixtures according to standard procedures known in the art (see Celis, J. E.; Carter, N., Cell Biology: A Laboratory Handbook. Elsevier Science: 2005). Corresponding absorbance readings were obtained using a plate reader at 450 and 660 nm.
(§3) A dose dependent study was first carried out for ARPE-19 cells using HQ concentrations varying from 100-1000 μM. Cells were then incubated at 37° C., 5% CO2 for 16 hours. HQ doses of less than 400 μM were non-lethal. Using 500 μM HQ for 16 hours gave a cell viability of ˜60%.
(§4) To evaluate the ability of the NAC alkyl-ester analogues to provide cellular protection against oxidative stress, cells were treated with 0.05 mM of NAC, NACME, NACEE, NACPE and NACBE for 2, 24 and 48 hours. Treated cells were then exposed to 500 μM HQ for 16 hours. HQ solutions were removed and replaced with DMEM:F-12 supplemented with 1% FBS, and followed by the addition of XTT (2,3-bis-(2-methoxy-4-nitro-5-sulfophenyl)-2H-tetrazolium-5-carboxanilide) and PMS (phenazine methyl sulfate).
(§5) To compare the effectiveness of NACBE and NAC in protecting against oxidative damage, another dose dependent study was carried out by varying the pretreatment concentration from 0.001 mM to 1.0 mM. […] Whereas for NAC, to reach the same cell viability, 0.5 mM concentration was needed (10× times that of NACBE).

[4] = tested on: ARPE-19 cells; experiment: in vitro; assay type: cell-based, human
Experimental: as §1, §2, §3, §4, §5

[5] = tested on: ARPE-19 cells; experiment: JC-1 assay (mitochondrial membrane potential); assay type: cell-based, human; conditions: 50 μM HQ for 4 hours, compared to the control
Experimental: JC-1 assays measuring the change in mitochondrial membrane potential were carried out to evaluate the protection of the NAC alkyl-ester analogues towards mitochondrial damage.
Typically, JC-1 dye has an inherent green fluorescence at 530 nm. Upon reaching the cell, due to the structural properties of the dye, it will accumulate in the mitochondria making aggregates known as J-aggregates. These J-aggregates consists of a red shifted fluorescence (590 nm). Damaged or unhealthy mitochondria, due to their depolarized membrane potential (compared to healthy ones), will have lesser amounts of aggregates and thus will have low intensity of red emission. Cells with healthy mitochondria will have a more prominent red fluorescence than that in cells with damaged/unhealthy mitochondria due to the ability in forming J-aggregates.
ARPE-19 cells were grown in black, clear bottom 96 well plates. […] With increasing time and dose of HQ, a drop in 590 nm/530 nm fluorescence is seen due to the depolarization of the mitochondria.
Next, to assess the effect of NAC alkyl-ester analogues on oxidative damage in mitochondria (FIG. 12B), ARPE-19 cells were pretreated with 1 mM NAC, NAC alkyl-ester analogues, NACA, GSH-EE and 1 μM MitoQ for 1 and 24 hours. […] The JC-1 solution was removed and washed once with PBS and fluorescence measurements were obtained in PBS at 485 nm excitation and emission at 535 nm and 590 nm. […]

[6] = tested on: ARPE-19 cells; experiment: CellTiter-Glo assay (ATP); assay type: cell-based, human
Experimental: ARPE-19 cells were grown in white 96 well plates. The cells were first exposed to 500 μM of HQ for 3, 6 and 8 hours and the amount of ATP produced was measured using the CellTiter-Glo assay kit to obtain a time dependent response (FIG. 15). […] Due to the mitochondrial damage caused by HQ, the production of ATP was decreased.

[7] = tested on: ARPE-19 cells; experiment: JC-1 staining (confocal); conditions: 1 mM pretreatment for 24 hours, then 50 μM HQ for 4 hours
From the text: The cells were imaged on the confocal (Zeiss LSM 800) by excitation with the 488 nm laser and emission imaged at 530 nm (green channel) and 590 nm (red channel).

[8] = tested on: ARPE-19 cells; experiment: ZO-1 staining of cellular junctions; assay type: cell-based, human
Experimental: ARPE-19 cells were grown on an 8-well slide until confluent. The cells were exposed to 1 mM NAC and NACBE for 24 hours, followed by treatment with 500 μM of HQ for 2 hours. The cells were washed with 3 cycles of PBS, and then fixed with 4% Paraformaldehyde at 4° C. for 30 mins. After fixation the cells were blocked in PBST (0.2% Triton X-100)+1% BSA for 60 mins. Primary antibody (rabbit anti-Zo-1, Invitrogen) was diluted 1/100 in PBST+1% BSA and added overnight at […]. Cells were washed ×3 with PBS and secondary antibody (Donkey anti-Rabbit AF-555, Abcam) was added for 4 hours at RT. Cells were washed ×3 with PBS and mounted with Prolong Diamond Mountant with DAPI (Invitrogen).

[9] = tested on: ARPE-19 cells; experiment: HPLC analysis of cellular uptake and conversion to NAC; assay type: in vitro ADME, human; conditions: 1 mM for 1 hour in HBSS
Experimental: ARPE-19 cells were seeded onto a 60 cm^2 dish and was allowed to grow to confluency. The cells were treated with 1 mM NAC and NACBE for 1 hour in HBSS. The drug solution was aspirated and washed twice with HBSS. The cells were scraped with the aid of methanol (˜1 mL) and collected into 2 mL centrifuge tubes. The cell suspension in methanol was sonicated (for cell lysis) in a water bath for 30 minutes and was centrifuged at 14,000 RPM for 15 minutes. The supernatant was transferred to a HPLC vial and methanol was evaporated under a stream of nitrogen.
The sample was resuspended in 50 μL of methanol before injecting into the HPLC system. Samples and standard (20 μL) were injected with an autosampler. Separation was conducted by 0.8 mL/min gradient elution with a water/0.10% formic acid and acetonitrile mobile phase on a 250×4.6-mm ([…]) C18 column (Restek, Pinnacle II) maintained at 25° C. The samples were monitored at 205 nm with a UV detector and analyzed with Agilent Chemstation software.

SMILES: CC(=O)N[C@@H](CS)C(N)=O
cellular GSH level (luminescence) compared to untreated cells [1]: did not produce any significant GSH

SMILES: CCOC(=O)CNC(=O)[C@H](CS)NC(=O)CC[C@H](N)C(=O)O [GSH-EE, glutathione ethyl ester]
cellular GSH level (luminescence) compared to untreated cells [1]: did not produce any significant GSH

SMILES: Oc1ccc(O)cc1 [HQ, hydroquinone]
amplification of mitochondrial DNA ([2]; 500 uM HQ for 24 hours): drastically reduced the amplification of mitochondrial DNA | viability at 16 h, 500 μM [3]: ~60% | non-lethal HQ doses ([4]; human, 16 h): less than 400 μM | mitochondrial depolarization (590 nm/530 nm fluorescence) [5]: moderate depolarization | level of ATP ([6]; 500 μM HQ for 3, 6 and 8 hours): the level of ATP decreased

compound and metabolite detected within the cells by HPLC [9]: no NAC was detected
SMILES: CC(=O)N[C@@H](CS)C(=O)O [NAC, N-acetylcysteine]
mitochondrial membrane potential after HQ (JC-1 staining) [7]: did not help to retain mitochondrial depolarization | protection of mitochondrial DNA amplification against HQ ([2]; pretreatment for 24 hours (1 mM), then 500 uM HQ for 24 hours): did not show any signs of protection | ZO-1 staining of cell-cell junctions ([8]; 1 mM for 24 hours, without HQ): proper cell-cell junctions | ZO-1 staining of cellular junctions after exposure to HQ ([8]; 1 mM pretreatment for 24 hours, then 500 μM HQ for 2 hours): diminished or was completely absent | cellular GSH level (luminescence) compared to untreated cells [1]: did not produce any significant GSH | concentration needed for 100% cell viability relative to NACBE ([4]; NAC 0.5 mM versus NACBE 0.05 mM): 10 × | pretreatment concentration at which 100% cell viability was obtained ([4]; pretreatment 0.001-1.0 mM for 24 hours, then 500 μM HQ for 16 hours): 0.5 mM | ATP production after HQ insult ([6]; 1 mM pretreatment, then 500 μM HQ for 3, 6 and 8 hours): some protection

SMILES: CCOC(=O)[C@H](CS)NC(C)=O [NACEE, N-acetylcysteine ethyl ester]
cellular GSH level (luminescence) compared to untreated cells [1]: produced the highest amounts of GSH

SMILES: CCCOC(=O)[C@H](CS)NC(C)=O [NACPE, N-acetylcysteine propyl ester]
cellular GSH level (luminescence) compared to untreated cells [1]: produced the highest amounts of GSH
